Tests used:
Type in all cases: cell-based
Cyclin E1 = Cyclin E1 (Homo sapiens, UniProt P24864+Q96SW2); assay: Cyclin E1 Cellular Degradation Assay (MSD); parameters: endogenous in cells; host or cells: OVCAR3; conditions: for DC50 / Dmax: Cyclin E1 cellular degradation; for Dmax: maximum degradation; for Ratio of GSPT1 DC50/Cyclin E1 DC50: selectivity for degradation of Cyclin E1 over GSPT1
Summary of the method: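 Cyclin E1 remaining after 24 h compound exposure of OVCAR3 cells was quantified in lysates by electrochemiluminescent MSD sandwich assay. DC50 (50% response concentration) and Dmax (maximum response) were calculated, with 110% response set by a reference compound at […].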

GSPT1 = GSPT1 (Homo sapiens, UniProt P15170+Q96SW2); assay: GSPT1 Cellular Degradation Assay (DF15-GSPT1-ePL); parameters: expressed in transfected cells; conditions: DF15-GSPT1-ePL cells, 20 hours
Sequence of GSPT1 (P15170 whole entry, the tested form may be a part): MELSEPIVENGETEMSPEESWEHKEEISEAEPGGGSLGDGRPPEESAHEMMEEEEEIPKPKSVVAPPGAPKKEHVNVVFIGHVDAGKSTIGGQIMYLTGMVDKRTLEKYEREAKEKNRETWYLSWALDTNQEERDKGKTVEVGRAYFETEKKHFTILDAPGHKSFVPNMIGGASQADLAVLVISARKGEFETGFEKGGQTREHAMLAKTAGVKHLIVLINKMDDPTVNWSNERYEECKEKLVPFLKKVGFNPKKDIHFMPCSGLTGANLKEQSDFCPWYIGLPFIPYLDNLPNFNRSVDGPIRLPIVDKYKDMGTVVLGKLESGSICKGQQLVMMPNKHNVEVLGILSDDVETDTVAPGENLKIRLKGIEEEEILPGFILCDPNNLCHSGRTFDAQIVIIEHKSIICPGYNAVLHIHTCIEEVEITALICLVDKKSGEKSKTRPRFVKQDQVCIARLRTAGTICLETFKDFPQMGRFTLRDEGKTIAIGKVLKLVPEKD
Sequence of GSPT1 (Q96SW2 whole entry, the tested form may be a part): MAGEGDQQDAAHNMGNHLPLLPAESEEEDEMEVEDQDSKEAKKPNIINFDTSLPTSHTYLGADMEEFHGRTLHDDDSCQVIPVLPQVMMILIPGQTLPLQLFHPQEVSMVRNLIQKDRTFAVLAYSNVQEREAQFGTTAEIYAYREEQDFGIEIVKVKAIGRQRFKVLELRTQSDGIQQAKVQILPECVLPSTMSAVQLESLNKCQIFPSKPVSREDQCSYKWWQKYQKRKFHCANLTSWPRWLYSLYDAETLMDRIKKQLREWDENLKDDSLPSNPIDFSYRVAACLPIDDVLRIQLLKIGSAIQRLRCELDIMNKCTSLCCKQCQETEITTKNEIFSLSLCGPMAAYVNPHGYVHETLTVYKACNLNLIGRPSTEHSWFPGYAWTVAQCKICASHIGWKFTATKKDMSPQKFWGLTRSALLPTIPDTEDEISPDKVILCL
Sequence of GSPT1 (Q16531 whole entry partner, the tested form may be a part): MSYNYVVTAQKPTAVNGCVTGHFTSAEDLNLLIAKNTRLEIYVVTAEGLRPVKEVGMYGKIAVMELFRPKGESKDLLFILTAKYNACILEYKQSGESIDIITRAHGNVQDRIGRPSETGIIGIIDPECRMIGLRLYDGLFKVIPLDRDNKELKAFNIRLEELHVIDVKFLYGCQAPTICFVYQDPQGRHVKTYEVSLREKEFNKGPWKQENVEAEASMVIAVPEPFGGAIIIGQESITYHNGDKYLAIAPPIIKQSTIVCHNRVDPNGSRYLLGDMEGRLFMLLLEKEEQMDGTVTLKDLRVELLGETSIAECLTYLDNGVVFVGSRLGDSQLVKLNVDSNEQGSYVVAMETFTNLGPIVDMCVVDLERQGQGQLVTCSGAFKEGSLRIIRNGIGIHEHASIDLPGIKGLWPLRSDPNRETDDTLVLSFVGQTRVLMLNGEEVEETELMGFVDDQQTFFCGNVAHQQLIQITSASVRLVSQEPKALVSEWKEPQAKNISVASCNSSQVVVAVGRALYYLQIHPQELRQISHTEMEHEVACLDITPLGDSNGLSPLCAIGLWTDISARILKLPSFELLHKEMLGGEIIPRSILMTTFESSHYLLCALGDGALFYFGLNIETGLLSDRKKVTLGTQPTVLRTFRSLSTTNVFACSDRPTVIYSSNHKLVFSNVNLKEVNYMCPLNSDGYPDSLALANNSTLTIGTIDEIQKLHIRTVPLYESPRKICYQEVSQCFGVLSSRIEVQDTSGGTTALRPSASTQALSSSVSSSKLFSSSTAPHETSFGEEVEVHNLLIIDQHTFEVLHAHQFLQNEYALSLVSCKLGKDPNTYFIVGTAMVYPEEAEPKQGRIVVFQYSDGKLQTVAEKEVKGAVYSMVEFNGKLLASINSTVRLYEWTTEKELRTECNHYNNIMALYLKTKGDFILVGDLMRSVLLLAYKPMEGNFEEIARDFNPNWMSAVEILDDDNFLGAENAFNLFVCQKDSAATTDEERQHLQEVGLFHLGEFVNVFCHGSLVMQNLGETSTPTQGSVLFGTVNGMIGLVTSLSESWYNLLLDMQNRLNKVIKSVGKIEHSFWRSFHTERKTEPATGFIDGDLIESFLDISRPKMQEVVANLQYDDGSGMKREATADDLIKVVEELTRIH
Summary of the method: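 DC50 and Dmax were derived from chemiluminescence, with 75% response set by the reference compound at […]. Readout was ePL enzyme-fragment complementation in a DF15 line expressing chimeric GSPT1. Cells were exposed to compound for 20 h at 37 °C in RPMI 1640 with 10% FBS, cooled 30 min, then lysed with substrate for 60 min.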

Phospho-Rb (Ser807/811) = assay: Phospho-Retinoblastoma (pRB) Cellular Assay; conditions: Homo sapiens, OVCAR-3, NIH OVCAR3 cells, 24 hours; for IC50: concentration giving 50% response; for Emax: maximum response, reference compound at 10 μM = 100%, read-out: pRB Ymax
Summary of the method: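 Phospho-Rb (Ser807/811) kit read-out on EnVision after lysis (≥4 h, room temperature, dark) of OVCAR3 cells exposed to compound dilutions for 24 h. IC50 and maximum response Ymax are relative to a 10 μM reference compound defining 100%.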

Sequence of Cyclin E1 (P24864 whole entry): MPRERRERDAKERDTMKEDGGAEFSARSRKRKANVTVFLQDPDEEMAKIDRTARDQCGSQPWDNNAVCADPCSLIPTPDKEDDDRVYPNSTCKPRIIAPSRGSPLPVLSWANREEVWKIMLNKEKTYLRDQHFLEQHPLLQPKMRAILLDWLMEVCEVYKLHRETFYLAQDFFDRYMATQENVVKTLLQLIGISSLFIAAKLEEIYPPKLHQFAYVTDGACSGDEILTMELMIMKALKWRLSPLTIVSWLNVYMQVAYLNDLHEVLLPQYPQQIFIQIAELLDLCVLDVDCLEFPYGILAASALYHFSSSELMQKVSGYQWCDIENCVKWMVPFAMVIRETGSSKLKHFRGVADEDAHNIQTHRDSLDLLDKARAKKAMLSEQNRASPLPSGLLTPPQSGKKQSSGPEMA
Sequence of Cyclin E1 (Q96SW2 whole entry): as the sequence (Q96SW2 whole entry, the tested form may be a part) above
Sequence of Cyclin E1 (Q16531 whole entry partner): as the sequence (Q16531 whole entry partner, the tested form may be a part) above

Compound	DC50 (Cyclin E1) [µM]	Dmax (Cyclin E1) [%]	Ratio of GSPT1 DC50/Cyclin E1 DC50 (Cyclin E1)	DC50 (GSPT1) [µM]	Dmax (GSPT1) [%]	IC50 (Phospho-Rb (Ser807/811)) [µM]	Emax (Phospho-Rb (Ser807/811)) [%]
COCCOc1c(COC(=O)Nc2ccc(Oc3ccc(F)c(F)c3)cc2)ccc2c1C(=O)N(C1CCC(=O)NC1=O)C2 (stereo not shown) [Example 168, [2-(2,6-dioxopiperidin-3-yl)-4-(2-methoxyethoxy)-3-oxo-2,3-dihydro-1H-isoindol-5-yl]methyl N-[4-(3,4-difluorophenoxy)phenyl]carbamate]	0.062	110	>226	> 14	33	0.019	118
COCCOc1c(COC(=O)Nc2ccc(Oc3ccc(F)c(F)c3)cc2F)ccc2c1C(=O)N(C1CCC(=O)NC1=O)C2 (stereo not shown) [Example 169, [2-(2,6-dioxopiperidin-3-yl)-4-(2-methoxyethoxy)-3-oxo-2,3-dihydro-1H-isoindol-5-yl]methyl N-[4-(3,4-difluorophenoxy)-2-fluorophenyl]carbamate]	0.088	104	>159	> 14	7	0.036	120
O=C1CCC(N2Cc3ccc(COC(=O)Nc4ccc(Oc5ccc(F)c(F)c5)cc4)c(OC4CCCOCC4)c3C2=O)C(=O)N1 (stereo not shown) [Example 170, [2-(2,6-dioxopiperidin-3-yl)-4-(oxepan-4-yloxy)-3-oxo-2,3-dihydro-1H-isoindol-5-yl]methyl N-[4-(3,4-difluorophenoxy)phenyl]carbamate]	0.015	109	>930	> 14	0	0.052	142
O=C1CCC(N2Cc3ccc(COC(=O)Nc4ccc(Oc5ccccc5)cc4)c(Oc4cccnc4)c3C2=O)C(=O)N1 (stereo not shown) [Example 171, [2-(2,6-dioxopiperidin-3-yl)-3-oxo-4-(pyridin-3-yloxy)-2,3-dihydro-1H-isoindol-5-yl]methyl N-(4-phenoxyphenyl)carbamate]	0.17	107	>82	> 14	0	0.16	130
O=C1CCC(N2Cc3ccc(COC(=O)Nc4ccc(Oc5ccc(F)c(F)c5)cc4)c(Oc4cccnc4)c3C2=O)C(=O)N1 (stereo not shown) [Example 172, [2-(2,6-dioxopiperidin-3-yl)-3-oxo-4-(pyridin-3-yloxy)-2,3-dihydro-1H-isoindol-5-yl]methyl N-[4-(3,4-difluorophenoxy)phenyl]carbamate]	0.079	100	>177	> 14	6	0.118	120
O=C1CC[C@H](N2Cc3ccc(COC(=O)Nc4ccc(Oc5ccc(F)c(F)c5)cc4)c(OCCCc4ccccc4)c3C2=O)C(=O)N1 [Example 173, {2-[(3S)-2,6-dioxopiperidin-3-yl]-3-oxo-4-(3-phenylpropoxy)-2,3-dihydro-1H-isoindol-5-yl}methyl N-[4-(3,4-difluorophenoxy)phenyl]carbamate]	0.156	105	>89	> 14	14	0.129	127
COC(=O)COc1c(COC(=O)Nc2ccc(Oc3ccc(F)c(F)c3)cc2)ccc2c1C(=O)N(C1CCC(=O)NC1=O)C2 (stereo not shown) [Example 174, Methyl 2-({5-[({[4-(3,4-difluorophenoxy)phenyl]carbamoyl}oxy)methyl]-2-(2,6-dioxopiperidin-3-yl)-3-oxo-2,3-dihydro-1H-isoindol-4-yl}oxy)acetate]	0.204	100	>69	> 14	16	0.473	99
CN(C)C(=O)COc1c(COC(=O)Nc2ccc(Oc3ccc(F)c(F)c3)cc2)ccc2c1C(=O)N(C1CCC(=O)NC1=O)C2 (stereo not shown) [Example 175, {4-[(dimethylcarbamoyl)methoxy]-2-(2,6-dioxopiperidin-3-yl)-3-oxo-2,3-dihydro-1H-isoindol-5-yl}methyl N-[4-(3,4-difluorophenoxy)phenyl]carbamate]	0.045	110	>308	> 14	11	0.03	128
NC(=O)COc1c(COC(=O)Nc2ccc(Oc3ccc(F)c(F)c3)cc2)ccc2c1C(=O)N(C1CCC(=O)NC1=O)C2 (stereo not shown) [Example 176, [4-(carbamoylmethoxy)-2-(2,6-dioxopiperidin-3-yl)-3-oxo-2,3-dihydro-1H-isoindol-5-yl]methyl N-[4-(3,4-difluorophenoxy)phenyl]carbamate]	0.179	101	>78	> 14	20	0.044	112
CCN(C)C(=O)COc1c(COC(=O)Nc2ccc(Oc3ccc(F)c(F)c3)cc2)ccc2c1C(=O)N(C1CCC(=O)NC1=O)C2 (stereo not shown) [Example 177, [2-(2,6-dioxopiperidin-3-yl)-4-{[ethyl(methyl)carbamoyl]methoxy}-3-oxo-2,3-dihydro-1H-isoindol-5-yl]methyl N-[4-(3,4-difluorophenoxy)phenyl]carbamate]	0.299	108	>47	> 14	0	0.161	126
O=C1CCC(N2Cc3ccc(COC(=O)Nc4ccc(Oc5ccc(F)c(F)c5)cc4)c(OCC(=O)N4CCOCC4)c3C2=O)C(=O)N1 (stereo not shown) [Example 178, [2-(2,6-dioxopiperidin-3-yl)-4-[2-(morpholin-4-yl)-2-oxoethoxy]-3-oxo-2,3-dihydro-1H-isoindol-5-yl]methyl N-[4-(3,4-difluorophenoxy)phenyl]carbamate]	0.11	105	>127	> 14	16	0.131	126
CC(=O)N1CCC(Oc2c(COC(=O)Nc3ccc(Oc4ccc(F)c(F)c4)cc3)ccc3c2C(=O)N(C2CCC(=O)NC2=O)C3)CC1 (stereo not shown) [Example 179, {4-[(1-acetylpiperidin-4-yl)oxy]-2-(2,6-dioxopiperidin-3-yl)-3-oxo-2,3-dihydro-1H-isoindol-5-yl}methyl N-[4-(3,4-difluorophenoxy)phenyl]carbamate]	0.224	104	>62	> 14	10	0.042	140
[2H]C1([2H])C(=O)NC(=O)[C@@]([2H])(N2Cc3ccc(COC(=O)Nc4ccc(Oc5ccc(F)c(F)c5)cc4)c(OC)c3C2=O)C1([2H])[2H] [Example 180, {2-[(3S)-2,6-dioxo(3,4,4,5,5-^2H5s)piperidin-3-yl]-4-methoxy-3-oxo-2,3-dihydro-1H-isoindol-5-yl}methyl N-[4-(3,4-difluorophenoxy)phenyl]carbamate]	0.06	111	>233	> 14	48	0.054	108
